Laboratory results reported in US11337976B2 (Plexxikon Inc., priority 2011, dated 2022).

The molecules below were run on A375 melanoma cells (B-Raf V600E mutation) (assay: A375 (A375_P-ERK) cell activity / cell growth inhibition assay). Conditions: Homo sapiens, A-375; A375 cells (text: A375_P-ERK).
Type: cell-based, human
Experimental: Compounds are assessed in a variety of cell based assays. For example human cell lines with B-RafV600E mutation (A375 melanoma, SKMEL3 melanoma, and COLO205 colon adenocarcinoma), as well as tumorigenic cell lines with wild-type B-RAF (SW620 colon adenocarcinoma) or with Ras mutations (SKMEL2 melanoma and IPC298 melanoma).
On day 1, cells are counted, then centrifuged in a conical tube for 5 minutes at 1000 rpm.
On day 2, compound at a maximum concentration of 5 mM is serially diluted 1:3 (e.g. 10 μL with 30 μL dimethyl sulfoxide) for a total of 8 point titration with DMSO as a control. A 1 μL aliquot of each dilution point and control is added to 249 μL growth media and 50 μL is added to a well containing cells, providing 10 μM compound at the maximum concentration point. The cells are incubated for 3 days at 37° C. in 5% CO2.
ATPlite is added 25 μL to each well, shake for 2 minutes, and the cells are incubated at room temperature for 10 minutes, then luminescence is read on Safire reader. The measured luminescence correlates directly with cell number, such that the reading as a function of compound concentration is used to determine the IC50 value.
COc1cc(-c2cnc3[nH]cc(C(=O)c4cccc(NS(=O)(=O)N(C)C)c4F)c3c2)ccc1C#N [P-0054, 5-(4-cyano-3-methoxy-phenyl)-3-[3-(dimethylsulfamoylamino)-2-fluoro-benzoyl]-1H-pyrrolo[2,3-b]pyridine] showed an IC50 of less than 1 µM. CN(C)S(=O)(=O)Nc1cccc(C(=O)c2c[nH]c3ncc(-c4ccc(F)cc4)cc23)c1F [P-0035] showed an IC50 of less than 1 µM. COCCS(=O)(=O)Nc1cccc(C(=O)c2c[nH]c3ncc(-c4cnc(OC)nc4)cc23)c1F [P-0065, N-[2-fluoro-3-[5-(2-methoxypyrimidin-5-yl)-1H-pyrrolo[2,3-b]pyridine-3-carbonyl]phenyl]-2-methoxy-ethane sulfonamide] showed an IC50 of less than 1 µM. Work on Cc1ncc(-c2cnc3[nH]cc(C(=O)c4cccc(NS(=O)(=O)N(C)C)c4F)c3c2)cn1 [P-0097, 3-[3-(dimethylsulfamoylamino)-2-fluoro-benzoyl]-5-(2-methylpyrimidin-5-yl)-1H-pyrrolo[2,3-b]pyridine] yielded an IC50 of less than 1 µM. Work on O=C(c1c(F)ccc(NS(=O)(=O)N2CCCC2)c1F)c1c[nH]c2ncc(-c3cnc(C4CC4)nc3)cc12 [P-0241, N-[3-[5-(2-cyclopropylpyrimidin-5-yl)-1H-pyrrolo[2,3-b]pyridine-3-carbonyl]-2,4-difluoro-phenyl]pyrrolidine-1-sulfonamide] yielded an IC50 of less than 1 µM. In the case of CCOc1ncc(-c2cnc3[nH]cc(C(=O)c4c(F)ccc(NS(=O)(=O)N(C)CC)c4F)c3c2)cn1 [P-0256, 5-(2-ethoxypyrimidin-5-yl)-3-[3-[[ethyl(methyl)sulfamoyl]amino]-2,6-difluoro-benzoyl]-1H-pyrrolo[2,3-b]pyridine], the IC50 is reported as less than 1 µM. Molecule O=C(c1c(F)ccc(NS(=O)(=O)N2CCCC2)c1F)c1c[nH]c2ncc(-c3cnc(N4CCC(O)CC4)nc3)cc12 [P-0262, N-[2,4-difluoro-3-[5-[2-(4-hydroxy-1-piperidyl)pyrimidin-5-yl]-1H-pyrrolo[2,3-b]pyridine-3-carbonyl]phenyl]pyrrolidine-1-sulfonamide] has an IC50 of less than 1 µM. CCC(C)S(=O)(=O)Nc1cccc(C(=O)c2c[nH]c3ncc(-c4ccc(N(C)C)nc4)cc23)c1F (stereo not shown) [P-0230, N-[3-[5-[6-(dimethylamino)-3-pyridyl]-1H-pyrrolo[2,3-b]pyridine-3-carbonyl]-2-fluoro-phenyl]butane-2-sulfonamide] showed an IC50 of less than 1 µM. In the case of CCN(C)S(=O)(=O)Nc1ccc(F)c(C(=O)c2c[nH]c3ncc(-c4ccc5nc(N)ncc5c4)cc23)c1F [P-0311, 2-amino-6-[3-[3-[[ethyl(methyl)sulfamoyl]amino]-2,6-difluoro-benzoyl]-1H-pyrrolo[2,3-b]pyridin-5-yl]quinazoline], the IC50 is reported as less than 1 µM. CCC(C)S(=O)(=O)Nc1cccc(C(=O)c2c[nH]c3ncc(-c4cnc(C)nc4)cc23)c1F (stereo not shown) [P-0231, N-[2-fluoro-3-[5-(2-methylpyrimidin-5-yl)-1H-pyrrolo[2,3-b]pyridine-3-carbonyl]phenyl]butane-2-sulfonamide] showed an IC50 of less than 1 µM. With CCN(C)S(=O)(=O)Nc1cccc(C(=O)c2c[nH]c3ncc(-c4cnc(C#N)nc4)cc23)c1F [P-0100, 5-(2-cyanopyrimidin-5-yl)-3-[3-[[ethyl(methyl)sulfamoyl]amino]-2-fluoro-benzoyl]-1H-pyrrolo[2,3-b]pyridine] the IC50 was less than 1 µM. CCN(C)S(=O)(=O)Nc1cccc(C(=O)c2c[nH]c3ncc(-c4cnc(NC5CC5)nc4)cc23)c1F [P-0077, 5-[2-(cyclopropylamino)pyrimidin-5-yl]-3-[3-[[ethyl(methyl)sulfamoyl]amino]-2-fluoro-benzoyl]-1H-pyrrolo[2,3-b]pyridine] showed an IC50 of less than 1 µM. Molecule CN(C)S(=O)(=O)Nc1cccc(C(=O)c2c[nH]c3ncc(-c4ccc(C#N)nc4)cc23)c1F [P-0099, 5-(6-cyano-3-pyridyl)-3-[3-(dimethylsulfamoylamino)-2-fluoro-benzoyl]-1H-pyrrolo[2,3-b]pyridine] has an IC50 of less than 1 µM.
